Measured values: patent US10959984B2, “Methods for treating cancer with RORγ inhibitors” (THE REGENTS OF THE UNIVERSITY OF CALIFORNIA, priority 2015, dated 2021)
Entries after “also recorded” stand apart in the source; their conditions may differ.

How the values were obtained:
lung cancer cells = test: CellTiter-GLO viability, lung cancer cells; assay type: cell-based, human; conditions: NSCLC cells: KRAS mutant (A427, Calu1, A549, H23, H358), BRAF mutant (H1666), EGFR mutant (HCC827, PC-9), Erlotinib-resistant (A427, H1975); 4 days
Description: (§1) For cell viability, cells were seeded in 96-well plates at 1500-2500 cells per well (optimum density for growth) in a total volume of 100 μl media. Serially diluted compounds in […] of media were added to the cells 12 hours later. After 4 days of incubation, Cell-Titer GLO reagents (Promega) were added and luminescence was measured on GLOMAX microplate luminometer (Promega), according to the manufacturer's instructions. All experimental points were set up as sextuplicate as biological replication and the entire experiments were repeated three times. The data are presented as percentage of viable cells with vehicle treated cells set as 100. The estimated in vitro IC50 values were calculated using GraphPad Prism 6 software.
(§2) Using a CellTiter-GLO assay, the viability of cells of different cancer types was measured after treatment with different concentrations of RORγ small molecule inhibitors for 4 days.

[1] = tested on: A549 human lung cancer cells xenograft tumors; test: A549 lung cancer xenograft tumor growth; assay type: in vivo, mice; conditions: A549 xenografts, 5 mg/kg/day i.p., six weeks
Description: FIG. 32A: Cell viability, as measured by Cell-Titer GLO, of different lung cancer cells treated with the indicated concentrations of SR2211 for 4 days. FIG. 32B: Cell viability, as measured by Cell-Titer GLO, of different lung cancer cells treated with the indicated concentrations of GSK805 for 4 days. FIG. 32C: Half-maximal inhibitory concentration (IC50) for SR2211 and GSK805 in indicated lung cancer cell lines treated for 4 days. FIG. 32D: Effects of the indicated treatments (SR2211, 5 mg/kg i.p. five times per week; or vehicle) on the growth of lung cancer A549 xenografts (n=6 mice per group). Treatment started when A549 tumors reached approximately 100 mm^3. Mean tumor volume±s.e.m., Mean tumor weight±s.e.m. and representative tumor images are shown. P<0.01.

[2] = tested on: ER-positive cells, such as MCF-7 and T47D; test: CellTiter-GLO viability, ER-positive breast cancer cells; assay type: cell-based; conditions: Homo sapiens, 96 h; ER-positive cells MCF-7 and T47D, treated for 4 days
Description: as §1, §2

MCF-7-TamR cell line = test: Growth of tamoxifen-resistant breast cancer cells; assay type: cell-based, human; conditions: MCF-7 TamR cells, in combination with tamoxifen
Description: as §2

22Rv1 xenografts = test: 22Rv1 xenograft tumor growth; assay type: in vivo, mice; conditions: nude mice; SR2211 5 mg/kg i.p., 8k/E11 10 and 20 mg/kg i.p., five times per week (FIG. 3A)
Description: Four-week-old male SCID C.B17 mice (for C4-2B and VCaP) or BALB/c nu/nu athymic mice (for 22Rv11 and PC-3) were purchased from Harlan Inc. For establishing tumors, 2×10^6 cells were suspended in total of 100 μL PBS/Matrigel (1:1) and implanted subcutaneously into the dorsal flank on both sides of the mice. Animal group size of six or more was estimated to have a high statistic power, based on power calculation (http://www.biomath.info/power/) and previous studies involving the same xenograft models^34,68. When the tumor volume was approximately 80 mm^3, the mice were randomized and then treated intraperitoneally (i.p.) with 100 μl of either vehicle or RORγ antagonists SR2211, XY011/8k (in a formulation of 15% Cremophor EL, Calbiochem, 82.5% PBS, and 2.5% DMSO) for five times per week. Tumor growth was monitored by calipers with volume calculated using the equation: (π/6 (length×width2)). Body weight during the course of the study was also monitored. At the end of the studies mice were killed and tumors were dissected and weighed. Additionally, prostate, seminal vesicle, testis, kidney, heart, lung, liver, epididymal fat pad and spleen were harvested and weighed. To assess the effect of combining RORγ antagonists and ENZ on the growth of castrated-resistant VCaP xenografts (CRPC-VCaP), first, SCID C.B17 mice were injected with VCaP cells as above to establish the tumors. Then, mice bearing tumors of approximately 180 mm^3 were surgically castrated. They were then observed for tumor regression. Once tumors grew back to the pre-castration size, mice were randomized and treated with vehicle, 5 mg kg^−1 SR2211, 10 mg […] ENZ or a combination of 5 mg kg^−1 SR2211 and 10 mg kg^−1 ENZ. ENZ was given by oral gavage as previously described^68 and SR2211 was administered i.p as above. Mice were excluded from the study if bearing no tumor or tumor with size twice larger or smaller than the mean, at the time of randomization.

[3] = tested on: HER2-positive cells, such as SKBR3 and HCC1954; test: CellTiter-GLO viability, HER2-positive breast cancer cells; assay type: cell-based, human; conditions: SKBR3 and HCC1954, 4 days
Description: as §1, §2

breast cancer cells = test: CellTiter-GLO viability, breast cancer cells; assay type: cell-based, human; conditions: cells having different major molecular features, 4 days
Description: as §1, §2

AR = test: Anti-AR ChIP-seq; assay type: cell-based, human; conditions: C4-2B cells, 5 μM, 24 hours
Description: C4-2B cells were treated with vehicle or SR2211 (5 μM) for 24 hours before harvested for ChIP-seq. ChIP-seq experiments were performed as described^65. Anti-AR ChIP-seq was repeated in two independent experiments. Antibodies used were against AR (Santa Cruz; sc-815); RNA Pol II (Santa cruz; sc-899); H3K4me2 (Abcam ab32356); H3K4me3 (Abcam; ab8580); H3 (acetyl K27) (Abcam; ab4729). Libraries were quantified with the Bioanalyzer 2100 (Agilent) and sequenced on the Illumina HiSeq 2000 Sequencer (BGI, Hong Kong). Sequencing tags were mapped against the Homo sapiens (Human) reference genome (hg19) using Bowtie 2^66. Uniquely mapped tags were used for peak calling by MACS(2.1.0)^67 to identify regions of ChIP-Seq enrichment over background. A q value threshold of enrichment of 5×10^−2 was used for all data sets. Normalized genome-wide signal coverage tracks from raw read alignment files were built by MACS2, UCSC tools (http://hgdownload.cse.ucsc.edu/admin/exe/linux.x86_64/bedGraphToBigWig/bedClip) and bedTools (http://code.google.com/p/bedtools/). Visualization of ChIP-seq signal at enriched genomic regions (avgprof and heatmap) was achieved by using ngs.plot (https://github.com/shenlab-sinai/ngsplot). ChIP-seq data have been deposited to NCBI-GEO with accession code GSE72714.

With `OC(c1ccc(-c2ccc(CN3CCN(Cc4ccncc4)CC3)cc2)c(F)c1)(C(F)(F)F)C(F)(F)F` [SR2211, 2-Fluoro-4′-[[4-(4-pyridinylmethyl)-1-piperazinyl]methyl]-a,a-bis (trifluoromethyl)-[1,1′-biphenyl]-4-methanol] the “growth and survival of lung cancer cells” value (lung cancer cells) was “strongly inhibited the growth and survival of lung cancer cells”, the “tumor growth of xenograft lung tumor model” value [1] was “strongly inhibited tumor growth” and the IC50 [2] was greater than 10 µM. For the same compound, the “sensitization of tamoxifen-resistant breast cancer cells to tamoxifen” value (MCF-7-TamR cell line) was “able to sensitize tamoxifen-resistant breast cancer cells to tamoxifen; also recorded: sensitized MCF-7 TamR cells to tamoxifen”, the “growth of xenograft tumors” value (22Rv1 xenografts) was “strongly inhibited growth of xenograft tumors” and the “inhibition of HER2-positive cells” value [3] was “relatively strong inhibition”. The “growth and survival of breast cancer cells” value (breast cancer cells) was “strongly inhibited the growth and survival of breast cancer cells” and the “genome-wide AR binding to its target loci” value (AR) was “dramatic inhibition of genome-wide AR binding”.
